Values joined by “and” are separate entries in the source; they are usually repeats but may differ in a detail not shown here. Identical values can stand only once. Like-named read-outs stand apart in the source and are kept apart here.
Assays:
[1] = tested on: granulocyte macrophage (CFU-GM), erythroid (BFU-E), and multipotential (CFU-GEMM) progenitor cells; conditions: for Absolute Number Progenitors Per ML Blood, BFU-E / Absolute Number Progenitors Per ML Blood, CFU-GEMM / Absolute Number Progenitors Per ML Blood, CFU-GM: 1 hour post administration; for Absolute Progenitors Per ML Blood, BFU-E / Absolute Progenitors Per ML Blood, CFU-GEMM / Absolute Progenitors Per ML Blood, CFU-GM: 5 mg/Kg single s.c.; for Absolute Progenitors Per ML Blood, BFU-E / Absolute Progenitors Per ML Blood, CFU-GEMM / Absolute Progenitors Per ML Blood, CFU-GM / Fold Change Compared to Time 0, progenitors BFU-E / Fold Change Compared to Time 0, progenitors CFU-GEMM / Fold Change Compared to Time 0, progenitors GM: methylcellulose culture
Procedure: Progenitors were stimulated to form colonies in vitro with the combination of 1 U/ml rhu Epo, 50 ng/ml rhu SLF, 5% Vol/Vol pokeweed mitogen mouse spleen cell conditioned medium (PWMSCM), and 0.1 mm hemin. Plates were scored 7 days after incubation.

[2] = tested on: white blood cells, CD34 positive progenitor cells, CFU-GM, BFU-E, CFU-GEMM progenitor cells
Procedure: Five healthy human volunteers having initial white blood cell counts of 4,500-7,500 cells/mm^3 were used in the study. […] Blood samples were obtained via catheter prior to the dose, and at various times up to 24 hours after dosing.
The blood samples were evaluated for total white blood cells, CD34 positive progenitor cells (via FACS analysis) as a percentage of total white blood cells, as well as the absolute numbers per mL and cycling status of granulocyte macrophage (CFU-GM), erythroid (BFU-E), and multipotential (CFU-GEMM) progenitor cells.
All progenitor cell results are based on the scoring of 3 culture plates per assay per point.
For the progenitor cell numbers and cycling status, the numbers of CFU-GM, BFU-E and CFU-GEMM in methylcellulose cultures by stimulation of the cells with 1 Unit (U)/ml recombinant human (rhu) erythropoietin, 100 U/ml rhu granulocyte-macrophage colony stimulating factor (GM-CSF), 100 U/ml rhu interleukin-3 (IL-3) and 50 ng/ml rhu steel factor (SLF=stem cell factor (SCF)). The CFU-GM were also evaluated in agar cultures stimulated with 100 U/ml rhu GM-CSF and 50 ng/ml rhu SLF. For both types of assays, colonies were scored after 14 day incubation in a humidified atmosphere with 5% CO2 and lowered (5%) O2 tension. Cell cycling status of progenitors was measured using a high specific activity tritiated thymidine kill technique as previously described (Broxmeyer, H. E., et al., Exp. Hematol. (1989) 17:455-459).

progenitor cells = conditions: AMD3100 5 mg/Kg s.c. + MIP-1α 5 μg I.V., 11 hours after rhu G-CSF or saline, 1 hour before blood
Procedure: Groups of mice were randomized to receive control diluent (saline) or G-CSF at a dose of 2.5 μg per mouse, twice a day, for two days via s.c. injection. […] One hour later, the mice were sacrificed and the number of progenitor cells per mL of blood were measured.

WBC counts = conditions: human, in vivo
bone marrow stem cells = conditions: administered within hours after coronary ligation, with or without rhG-CSF
Procedure: Adult rats are anesthetized and a thoracotomy is performed. The descending branch of the left coronary artery is ligated and not reperfused. […] Control rats are not treated with the reagents. The animals are monitored at one-week intervals by echocardiography and MRI. The experiment is terminated at 2, 6 to 12 weeks post-surgery. On the day of sacrifice, the hemodynamic functions are analyzed for left ventricle-end diastolic pressure, left ventricle-developed pressure and the rate of rise and fall of left ventricle pressure. The heart is then arrested in diastole and perfused via the abdominal aorta to flush residual blood from the vascular network of the myocardium. This is followed by perfusion of the heart with 10% formalin. Several slices are made through the fixed heart and these are embedded in paraffin and sections. The sections are stained and analyzed by light microscopy to determine the size of the infarct in the treated and control animals. Tissue sections from hearts taken at 2 weeks after surgery are stained with antibodies specific for immature, developing myocyte and blood vessel proteins and analyzed by confocal microscopy. The immunohistochemical analysis involves the identification of transcription factors and surface markers expressed in early stages of myocyte development.

[3] = tested on: WBC count and circulating CD34+ progenitor/stem cells; conditions: single dose of 80 μg/kg, cited from earlier work
[4] = T = 1 hours after injection, average of 5 donors

Procedure for white blood cell count: Eleven human patients having initial white blood cell counts of 4,000-6,500 cells/mm^3 were used in the study. […] Aliquots from this stock solution were added to 50-ml bags of 0.9% saline for intravenous injection in amounts to achieve the desired dosage levels (10 μg/kg-80 μg/kg).
The subjects described in this Example already contained an indwelling peripheral intravenous catheter. […] Blood samples were obtained prior to the dose, and at various times up to 24 hours after dose administration.
Three patients were administered dosages of 10 μg/kg (open circles); 3 patients were administered dosages of 20 μg/kg (solid circles); 3 patients were administered 40 μg/kg (open triangles); and 2 patients were administered 80 μg/kg (closed triangles).

## c1cc(CN2CCCNCCNCCCNCC2)ccc1CN1CCCNCCNCCCNCC1 [AMD3100, 1,1′-[1,4-phenylenebis(methylene)]-bis-1,4,8,11-tetra-azacyclotetradecane]
[1]; 1 mg/kg single s.c.
  Absolute Number Progenitors Per ML Blood, BFU-E: 62 Per ML Blood
  Absolute Number Progenitors Per ML Blood, CFU-GEMM: 27.1 Per ML Blood
  Absolute Number Progenitors Per ML Blood, CFU-GM: 424 Per ML Blood
[1]; 2.5 mg/kg single s.c.
  Absolute Number Progenitors Per ML Blood, BFU-E: 98.9 Per ML Blood
  Absolute Number Progenitors Per ML Blood, CFU-GEMM: 70.6 Per ML Blood
  Absolute Number Progenitors Per ML Blood, CFU-GM: 687.6 Per ML Blood
[1]; 15″
  Absolute Progenitors Per ML Blood, BFU-E: 134.5 Per ML Blood
  Absolute Progenitors Per ML Blood, CFU-GEMM: 90.4 Per ML Blood
  Absolute Progenitors Per ML Blood, CFU-GM: 791.6 Per ML Blood
[1]; 30″
  Absolute Progenitors Per ML Blood, BFU-E: 209.3 Per ML Blood
  Absolute Progenitors Per ML Blood, CFU-GEMM: 113.5 Per ML Blood
  Absolute Progenitors Per ML Blood, CFU-GM: 1805.5 Per ML Blood
[1]; 120″
  Absolute Progenitors Per ML Blood, BFU-E: 102.3 Per ML Blood
  Absolute Progenitors Per ML Blood, CFU-GEMM: 47.6 Per ML Blood
  Absolute Progenitors Per ML Blood, CFU-GM: 828.7 Per ML Blood
[1]; 5 mg/kg single s.c.
  Absolute Number Progenitors Per ML Blood, BFU-E: 92.8 Per ML Blood
  Absolute Number Progenitors Per ML Blood, CFU-GEMM: 69.5 Per ML Blood
  Absolute Number Progenitors Per ML Blood, CFU-GM: 608.4 Per ML Blood
[1]; 10 mg/kg single s.c.
  Absolute Number Progenitors Per ML Blood, BFU-E: 120.5 Per ML Blood
  Absolute Number Progenitors Per ML Blood, CFU-GEMM: 79.8 Per ML Blood
  Absolute Number Progenitors Per ML Blood, CFU-GM: 825.6 Per ML Blood
[1]; Time 2′
  Fold Change Compared to Time 0, progenitors BFU-E: 2.07 fold
  Fold Change Compared to Time 0, progenitors CFU-GEMM: 1.85 fold
  Fold Change Compared to Time 0, progenitors GM: 2.86 fold
[1]; Time 15″
  Fold Change Compared to Time 0, progenitors BFU-E: 2.72 fold
  Fold Change Compared to Time 0, progenitors CFU-GEMM: 3.51 fold
  Fold Change Compared to Time 0, progenitors GM: 2.73 fold
[1]; Time 30″
  Fold Change Compared to Time 0, progenitors BFU-E: 4.24 fold
  Fold Change Compared to Time 0, progenitors CFU-GEMM: 4.41 fold
  Fold Change Compared to Time 0, progenitors GM: 6.23 fold
[2]; 80 μg/kg single s.c.
  Time of maximal elevation of white blood cell count and CD34 positive progenitor cells post-administration: 6 h
[2]; 80 μg/kg single s.c., 2 Hr, volunteers P1-P5
  Mobilization of white blood cells in individual volunteers: 12.4 ×10^3 WBC's and 21.4 ×10^3 WBC's and 13.5 ×10^3 WBC's
[2]; T = 1, average of 5 donors
  % CHG, CFU-GEMM, methylcellulose culture: 131.8%
  % CHG, CFU-GM, agar culture: 180.8%
  % CHG, CFU-GM, methylcellulose culture: 376.7%
  Fold change, BFU-E, methylcellulose culture, MEAN: 1.99 fold
  Fold change, CFU-GEMM, methylcellulose culture, MEAN: 2.32 fold
  Fold change, CFU-GM, agar culture, MEAN: 2.81 fold
  Fold change, CFU-GM, methylcellulose culture, MEAN: 4.77 fold
[2]; T = 3, average of 5 donors
  % CHG, BFU-E, methylcellulose culture: 221.3%
  % CHG, CFU-GEMM, methylcellulose culture: 332.5%
  % CHG, CFU-GM, agar culture: 754.1%
  % CHG, CFU-GM, methylcellulose culture: 1266.5%
  % CHG, nucleated cellularity PBL-LD: 185.6%
  % CHG, nucleated cellularity PBL-US: 180.2%
  Fold change compared to TIME = 0, nucleated cellularity PBL-LD, MEAN: 2.86 fold
  Fold change compared to TIME = 0, nucleated cellularity PBL-US, MEAN: 2.80 fold
  Fold change, BFU-E, methylcellulose culture, MEAN: 3.21 fold
  Fold change, CFU-GEMM, methylcellulose culture, MEAN: 4.33 fold
  Fold change, CFU-GM, agar culture, MEAN: 8.54 fold
  Fold change, CFU-GM, methylcellulose culture, MEAN: 13.66 fold
[2]; T = 6, average of 5 donors
  % CHG, BFU-E, methylcellulose culture: 500.5%
  % CHG, CFU-GEMM, methylcellulose culture: 907.2%
  % CHG, CFU-GM, agar culture: 1692.8%
  % CHG, CFU-GM, methylcellulose culture: 2070.6%
  % CHG, nucleated cellularity PBL-LD: 266.3%
  % CHG, nucleated cellularity PBL-US: 225.8%
  Fold change compared to TIME = 0, nucleated cellularity PBL-LD, MEAN: 3.66 fold
  Fold change compared to TIME = 0, nucleated cellularity PBL-US, MEAN: 3.26 fold
  Fold change, BFU-E, methylcellulose culture, MEAN: 6.01 fold
  Fold change, CFU-GEMM, methylcellulose culture, MEAN: 10.07 fold
  Fold change, CFU-GM, agar culture, MEAN: 17.93 fold
  Fold change, CFU-GM, methylcellulose culture, MEAN: 21.71 fold
[2]; T = 9, average of 5 donors
  % CHG, BFU-E, methylcellulose culture: 334.4%
  % CHG, CFU-GEMM, methylcellulose culture: 425.4%
  % CHG, CFU-GM, methylcellulose culture: 947.3%
  % CHG, nucleated cellularity PBL-LD: 264.3%
  % CHG, nucleated cellularity PBL-US: 209.4%
  Fold change compared to TIME = 0, nucleated cellularity PBL-LD, MEAN: 3.64 fold
  Fold change compared to TIME = 0, nucleated cellularity PBL-US, MEAN: 3.09 fold
  Fold change, BFU-E, methylcellulose culture, MEAN: 4.34 fold
  Fold change, CFU-GEMM, methylcellulose culture, MEAN: 5.25 fold
  Fold change, CFU-GM, methylcellulose culture, MEAN: 10.47 fold
[2]; T = 9, average of donors
  % CHG, CFU-GM, agar culture: 924.9%
  Fold change, CFU-GM, agar culture, MEAN: 10.25 fold
[2]; T = 24, average of 5 donors
  % CHG, BFU-E, methylcellulose culture: 26.3%
  % CHG, CFU-GEMM, methylcellulose culture: 53.2%
  % CHG, CFU-GM, methylcellulose culture: 55.5%
  % CHG, nucleated cellularity PBL-US: 7.0%
  Fold change compared to TIME = 0, nucleated cellularity PBL-LD, MEAN: 1.05 fold
  Fold change compared to TIME = 0, nucleated cellularity PBL-US, MEAN: 1.07 fold
  Fold change, BFU-E, methylcellulose culture, MEAN: 1.26 fold
  Fold change, CFU-GEMM, methylcellulose culture, MEAN: 1.53 fold
  Fold change, CFU-GM, methylcellulose culture, MEAN: 1.56 fold
[2]; T = 24, average of donors
  % CHG, CFU-GM, agar culture: 108.3%
  Fold change, CFU-GM, agar culture, MEAN: 2.08 fold
[2]; [4]
  % CHG, nucleated cellularity PBL-LD: 86.2%
  % CHG, nucleated cellularity PBL-US: 68.6%
  Fold change compared to TIME = 0, nucleated cellularity PBL-LD, MEAN: 1.86 fold
  Fold change compared to TIME = 0, nucleated cellularity PBL-US, MEAN: 1.69 fold
[2]; all five donors
  Time of maximal fold increases in circulating levels of progenitor cells after injection: 6 h
Progenitor cells
  Mobilization of progenitor cells in combination with mu MIP-1α: additive to greater than additive
White blood cell count; all patients, 10-80 μg/kg intravenous, succeeding 5-10 hours after administration
  Change of white blood cell count: marked increase in white blood cell count
White blood cell count; one patient, 80 μg/kg intravenous, from 6,000 cells/mm^3
  Peak white blood cell count: 19,000 cells/mm^3
White blood cell count; patient showing the least response, 20 μg/kg intravenous, from about 6,300 cells/mm^3
  White blood cell count after increase: about 9,000 cells/mm^3
WBC counts
  Time until WBC counts returned to baseline after discontinuation of the infusion: 7 days
Bone marrow stem cells
  Expected effect after induction of cardiac ischemia: mobilizes bone marrow stem cells rapidly
[3]; 6 hour time point
  Peak increase in circulating CD34+ progenitor/stem cells: 6 fold
[3]
  WBC count: 17,000 /μl

From US7550484B2, “Chemokine receptor binding heterocyclic compounds with enhanced efficacy” (Genzyme Corporation, priority 2003, dated 2009)
